For 26 compounds, IC50 results are on record in US11479546B2, “Antimalarial hexahydropyrimidine analogues” (UCB Biopharma SRL, priority 2018, dated 2022).

In the assay the test system is Plasmodium falciparum 3D7. In words: P. falciparum 3D7 asexual blood stage assay, Assay Procedure Version 2 (SYBR green readout). It counts as cell-based. The following applies: Plasmodium falciparum, 3D7, Erythrocyte, 72 h, Version 2 of the assay procedure (asterisk *); 72 h incubation in infected erythrocytes; 50,000 nM to 15 nM. In a few lines:
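P. falciparum 3D7 in A+ erythrocytes (5% haematocrit, 0.5% parasitaemia) exposed 72 h at 37 °C (1% O2, 3% CO2) to 20-point 1.5-fold titrations, final 50,000–15 nM in 0.5% DMSO. SYBR green in lysis buffer overnight, fluorescence 485/528 nm; % inhibition vs mefloquine and DMSO controls, EC50 from biphasic two-site fit.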
In the case of `C[C@@H]1C[C@H](N2C(=N)N[C@](C)(c3cccc(Nc4ccc(OCC(F)(F)F)nc4)c3Cl)CC2=O)CCO1` (relative stereo) [Example 201, (6S)-6-(2-Chloro-3-{[6-(2,2,2-trifluoroethoxy)pyridin-3-yl]-amino}phenyl)-2-imino-6-methyl-3-[(2R*,4R*)-2-methyl-tetrahydropyran-4-yl]-hexahydropyrimidin-4-one], half-maximal inhibition (IC50) required 102 nM.

The compound `Cc1ccc(Nc2cccc([C@]3(C)CC(=O)N([C@H]4CCO[C@@H](C)C4)C(=N)N3)c2Cl)cn1` (single isomer, unassigned) [Example 136] had an IC50 of 249 nM.

In turn, `C[C@@]1(c2cccc(Nc3ccc(OC(F)(F)F)nc3)c2Cl)CC(=O)N([C@H]2C[C@@](C)(O)C2)C(=N)N1` [Example 130, (6S)-6-(2-Chloro-3-{[6-(trifluoromethoxy)pyridin-3-yl]-amino}phenyl)-3-(3-hydroxy-3-methylcyclobutyl)-2-imino-6-methylhexahydropyrimidin-4-one] registered an IC50 of 744 nM.

Compound `C[C@@H]1C[C@H](N2C(=N)N[C@](C)(c3cccc(Nc4ccc(C5CC5)nn4)c3Cl)CC2=O)CCO1` (relative stereo) [Example 200, (6S)-6-{2-Chloro-3-[(6-cyclo-propylpyridazin-3-yl)amino]-phenyl}-2-imino-6-methyl-3-[(2R*,4R*)-2-methyltetrahydro-pyran-4-yl]hexahydropyrimidin-4-one] showed a concentration for half-maximal inhibition (IC50) of 45 nM.

`CC(C)Oc1ccccc1Nc1cccc([C@]2(C)CC(=O)N(C3CCOCC3)C(=N)N2)c1Cl` [Example 76, (6S)-6-[2-Chloro-3-(2-isopropoxyanilino)phenyl]-2-imino-6-methyl-3-(tetrahydro-pyran-4-yl)hexahydropyrimidin-4-one] registered an IC50 of 757 nM.

`C[C@@]1(c2cccc(Nc3ccc(C(F)(F)F)cc3C#N)c2Cl)CC(=O)N(C2CCOCC2)C(=N)N1` [Example 83, 2-{2-Chloro-3-[(4S)-2-imino-4-methyl-6-oxo-1-(tetrahydro-pyran-4-yl)hexahydropyrimidin-4-yl]anilino}-5-(trifluoro-methyl)benzonitrile] registered an IC50 of 357 nM.

`C[C@@]1(c2cccc(Nc3ccccc3S(C)(=O)=O)c2Cl)CC(=O)N(C2CCOCC2)C(=N)N1` [Example 43, (6S)-6-[2-Chloro-3-(2-methyl-sulfonylanilino)phenyl]-2-imino-6-methyl-3-(tetrahydro-pyran-4-yl)hexahydropyrimidin-4-one] returned an IC50 of 63 nM.

Regarding `C[C@@]1(c2cccc(Nc3cccnc3C#N)c2Cl)CC(=O)N(C2CCOCC2)C(=N)N1` [Example 51, 3-{2-Chloro-3-[(4S)-2-imino-4-methyl-6-oxo-1-(tetrahydro-pyran-4-yl)hexahydropyrimidin-4-yl]anilino}pyridine-2-carbo-nitrile], the midpoint of inhibition, the IC50, lay at 370 nM.

Regarding `Cc1nnc(-c2ccc(Nc3cccc([C@]4(C)CC(=O)N(C5CCOCC5)C(=N)N4)c3Cl)cc2)o1` [Example 80, (6S)-6-{2-Chloro-3-[4-(5-methyl-1,3,4-oxadiazol-2-yl)-anilino]phenyl}-2-imino-6-methyl-3-(tetrahydropyran-4-yl)hexahydropyrimidin-4-one], the IC50 turned out to be 652 nM.

`Cn1cc2c(Nc3cccc([C@]4(C)CC(=O)N(C5CCOCC5)C(=N)N4)c3Cl)cccc2n1` [Example 77, (6S)-6-{2-Chloro-3-[(2-methyl-indazol-4-yl)amino]phenyl}-2-imino-6-methyl-3-(tetrahydro-pyran-4-yl)hexahydropyrimidin-4-one] returned an IC50 of 791 nM.

In turn, `CC1(C)CC(N2C(=N)N[C@](C)(c3cccc(Nc4ccc(C(C)(C)C)nc4)c3Cl)CC2=O)CCO1` (single isomer, unassigned) [Example 148, (6S)-6-{3-[(6-tert-Butylpyridin-3-yl)amino]-2-chlorophenyl}-3-[(4S*)-2,2-dimethyltetrahydro-pyran-4-yl]-2-imino-6-methyl-hexahydropyrimidin-4-one] showed an IC50 of 368 nM.

Compound `C[C@@]1(c2cccc(Nc3ccc(OCC(F)(F)F)nc3)c2Cl)CC(=O)N(C2CCOCC2)C(=N)N1` [Example 112, (6S)-6-(2-Chloro-3-{[6-(2,2,2-trifluoroethoxy)pyridin-3-yl]-amino}phenyl)-2-imino-6-methyl-3-(tetrahydropyran-4-yl)hexahydropyrimidin-4-one] displayed an IC50 of 642 nM.

Compound `C[C@H]1C[C@H](N2C(=N)N[C@](C)(c3cccc(Nc4ccc(C5CC5)nc4)c3Cl)CC2=O)CCO1` (single isomer, unassigned; peak 2) [Example 194, (6S)-6-{2-Chloro-3-[(6-cyclo-propylpyridin-3-yl)amino]-phenyl}-2-imino-6-methyl-3-[(2S*,4R*)-2-methyltetrahydro-pyran-4-yl]hexahydropyrimidin-4-one (Peak 2)] displayed an IC50 of 747 nM.

As for `C[C@@]1(c2cccc(Nc3cccc(OC(F)F)c3)c2Cl)CC(=O)N(C2CCOCC2)C(=N)N1` [Example 63, (6S)-6-{2-Chloro-3-[3-(difluoro-methoxy)anilino]phenyl}-2-imino-6-methyl-3-(tetrahydro-pyran-4-yl)hexahydropyrimidin-4-one], the IC50 stood at 916 nM.

As for `CN(C)c1ccc(Nc2cccc([C@]3(C)CC(=O)N(C4CCOCC4)C(=N)N3)c2Cl)cn1` [Example 72, (6S)-6-(2-Chloro-3-{[6-(dimethylamino)pyridin-3-yl]-amino}phenyl)-2-imino-6-methyl-3-(tetrahydropyran-4-yl)hexahydropyrimidin-4-one], the IC50 worked out at 325 nM.

`CC1(C)CC(N2C(=N)N[C@](C)(c3cccc(Nc4cnc(C(C)(C)C)cn4)c3Cl)CC2=O)CCO1` (single isomer, unassigned) [Example 149, (6S)-6-{3-[(5-tert-Butylpyrazin-2-yl)amino]-2-chlorophenyl}-3-[(4S*)-2,2-dimethyltetrahydro-pyran-4-yl]-2-imino-6-methyl-hexahydropyrimidin-4-one] showed an IC50 of 1380 nM.

Consider `COc1cc(C#N)ccc1Nc1cccc([C@]2(C)CC(=O)N(C3CCOCC3)C(=N)N2)c1Cl` [Example 47, 4-{2-Chloro-3-[(4S)-2-imino-4-methyl-6-oxo-1-(tetrahydro-pyran-4-yl)hexahydropyrimidin-4-yl]anilino}-3-methoxy-benzonitrile], for which the IC50 turned out to be 171 nM.

The compound `C[C@@]1(c2cccc(Nc3ccc(C#N)nc3)c2Cl)CC(=O)N([C@H]2C[C@@](C)(O)C2)C(=N)N1` [Example 122, 5-{2-Chloro-3-[(4S)-1-(3-hydroxy-3-methylcyclobutyl)-2-imino-4-methyl-6-oxo-hexahydropyrimidin-4-yl]-anilino}pyridine-2-carbonitrile] showed a half-maximal inhibitory concentration (IC50) of 4510 nM.

`C[C@@H]1C[C@H](N2C(=N)N[C@](C)(c3cccc(Nc4ccc(OC(F)F)nc4)c3Cl)CC2=O)CCO1` (stereo in doubt) [Example 138, (6S)-6-(2-Chloro-3-{[6-(difluoromethoxy)pyridin-3-yl]-amino}phenyl)-2-imino-6-methyl-3-[(cis)-2-methyl-tetrahydropyran-4-yl]-hexahydropyrimidin-4-one] came in with an IC50 of 19 nM.

Take `Cc1nn(-c2ccccc2)c(C)c1Nc1cccc([C@]2(C)CC(=O)N(C3CCOCC3)C(=N)N2)c1Cl` [Example 186, (6S)-6-{2-Chloro-3-[(3,5-dimethyl-1-phenylpyrazol-4-yl)-amino]phenyl}-2-imino-6-methyl-3-(tetrahydropyran-4-yl)hexahydropyrimidin-4-one]: the concentration for half-maximal inhibition (IC50) was determined as 456 nM.

Compound `Cc1ccc(Nc2cccc([C@]3(C)CC(=O)N([C@@H]4C[C@H]5CC[C@@H](C4)O5)C(=N)N3)c2Cl)cn1` (mixture of isomers) [Example 157, (6S)-6-{2-Chloro-3-[(6-methyl-pyridin-3-yl)amino]phenyl}-2-imino-6-methyl-3-[(1SR,5RS)-8-oxabicyclo[3.2.1]octan-3-yl]-hexahydropyrimidin-4-one] showed an IC50 of 3860 nM.

Compound `C[C@@]1(c2cccc(Nc3ccc(C4CC4)nc3)c2Cl)CC(=O)N(C2CCC(F)(F)CC2)C(=N)N1` [Example 142, (6S)-6-{2-Chloro-3-[(6-cyclo-propylpyridin-3-yl)amino]-phenyl}-3-(4,4-difluoro-cyclohexyl)-2-imino-6-methyl-hexahydropyrimidin-4-one] displayed a concentration for half-maximal inhibition (IC50) of 232 nM.

In turn, `C[C@@]1(c2cccc(Nc3ccc(F)cc3OC(F)F)c2Cl)CC(=O)N(C2CCOCC2)C(=N)N1` [Example 92, (6S)-6-{2-Chloro-3-[2-(difluoro-methoxy)-4-fluoro-anilino]-phenyl}-2-imino-6-methyl-3-(tetrahydropyran-4-yl)-hexahydropyrimidin-4-one] yielded an IC50 of 461 nM.

In turn, `Cc1ccc(Nc2cccc([C@]3(C)CC(=O)N(C4CCOCC4)C(=N)N3)c2Cl)nn1` [Example 84, (6S)-6-{2-Chloro-3-[(6-methyl-pyridazin-3-yl)amino]phenyl}-2-imino-6-methyl-3-(tetrahydro-pyran-4-yl)hexahydropyrimidin-4-one] came in with an IC50 of 1540 nM.

`C[C@@]1(c2cccc(Nc3cnc(C(F)(F)F)nc3)c2Cl)CC(=O)N(C2CCOCC2)C(=N)N1` [Example 52, (6S)-6-(2-Chloro-3-{[2-(trifluoromethyl)pyrimidin-5-yl]amino}phenyl)-2-imino-6-methyl-3-(tetrahydropyran-4-yl)hexahydropyrimidin-4-one] came in with an IC50 of 680 nM.

In turn, `Cc1ccc(Nc2cccc([C@]3(C)CC(=O)N(C4CCOCC4)C(=N)N3)c2Cl)c(C#N)n1` [Example 88, 3-{2-Chloro-3-[(4S)-2-imino-4-methyl-6-oxo-1-(tetrahydro-pyran-4-yl)hexahydropyrimidin-4-yl]anilino}-6-methylpyridine-2-carbonitrile] displayed an IC50 of 532 nM.
